The subject of one assay is ER-alpha MCF7. The assay can be described thus: ER-alpha MCF7 HCS EC50; stated as measured by in vitro cell proliferation assays of Examples 902 and 903. In kind it is cell-based. The note with it: Homo sapiens, MCF7, MCF7 cells; Table 2. From the text: The CellTiter-Glo® Luminescent Cell Viability Assay is a homogeneous method to determine the number of viable cells in culture based on quantitation of the ATP present, which signals the presence of metabolically active cells. The CellTiter-Glo® Assay is designed for use with multiwell plate formats, making it ideal for automated high-throughput screening (HTS), cell proliferation and cytotoxicity assays. The homogeneous assay procedure involves adding a single reagent (CellTiter-Glo® Reagent) directly to cells cultured in serum-supplemented medium. Cell washing, removal of medium or multiple pipetting steps are not required. The Cell Titer-Glo® Luminescent Cell Viability Assay, including reagents and protocol are commercially available (Promega Corp., Madison, WI, Technical Bulletin TB288).
The assay assesses the ability of compounds to enter cells and inhibit cell proliferation. The assay principle is based on the determination of the number of viable cells present by quantitating the ATP present in a homogenous assay where addition of the Cell Titer-Glo® reagent results in cell lysis and generation of a luminescent signal through the luciferase reaction. The luminescent signal is proportional to the amount of ATP present.
Cell Culture Medium: RPMI or DMEM high glucose, 10% Fetal Bovine Serum, 2 mM L-Glutamine, P/S. Incubate O/N (overnight) at 37° C., 5% CO2.
Day 2—Add Drug to Cells, Compound Dilution, DMSO Plates (serial 1:2 for 9 points). Add 20 μl of compound at 10 mM in the 2nd column of 96 well plate. […] Add 147 μl of Media into all wells. Transfer 3 μl of DMSO+ compound from each well in the DMSO Plate to each corresponding well on Media Plate using Rapidplate® (Caliper, a Perkin-Elmer Co.). For 2 drug combination studies, transfer one drug 1.5 μl of DMSO+ compound from each well in the DMSO Plate to each corresponding well on Media Plate using Rapidplate. Then, transfer another drug 1.5 μl to the medium plate.
Drug Addition to Cells, Cell Plate (1:10 dilution): Add 6 μl of media+ compound directly to cells (54 μl of media on the cells already). Incubate 3 days at 37° C., 5% CO2 in an incubator that will not be opened often.
Day 5—Develop Plates, Thaw Cell Titer Glo Buffer at room temperature: Remove Cell Plates from 37° C. and equilibrate to room temperature for about 30 minutes. Add Cell Titer-Glo® Buffer to Cell Titer-Glo® Substrate (bottle to bottle). Add 30 μl Cell Titer-Glo® Reagent (Promega cat. #G7572) to each well of cells. Place on plate shaker for about 30 minutes. Read luminescence on Analyst HT Plate Reader (half second per well).
Cell viability assays and combination assays: Cells were seeded at 1000-2000 cells/well in 384-well plates for 16 h. On day two, nine serial 1:2 compound dilutions were made in DMSO in a 96 well plate. The compounds were further diluted into growth media using a Rapidplate® robot (Zymark Corp., Hopkinton, MA). The diluted compounds were then added to quadruplicate wells in 384-well cell plates and incubated at 37° C. and 5% CO2. After 4 days, relative numbers of viable cells were measured by luminescence using Cell Titer-Glo® (Promega) according to the manufacturer's instructions and read on a Wallac Multilabel Reader® (PerkinElmer, Foster City). EC50 values were calculated using Prism® 4.0 software (GraphPad, San Diego).
5 ul of each individual compound concentration and each control compound was transferred to the cell plate. Fulvestrant was added to control wells at a final concentration of 100 nM). DMSO was added to negative control wells (0.2% v/v).
For orientation: EC50 means the concentration needed to bring the measured effect to its halfway point. Consider `C[C@H]1Cc2c([nH]c3cccc(F)c23)[C@H](c2c(F)cc(NC3CN(CCCF)C3)cc2F)N1CC(F)(F)F` [Example 408, N-(3,5-difluoro-4-((1S,3S)-5-fluoro-3-methyl-2-(2,2,2-trifluoroethyl)-2,3,4,9-tetrahydro-1H-pyrido[3,4-b]indol-1-yl)phenyl)-1-(3-fluoropropyl)azetidin-3-amine], for which the EC50 was determined as 6.3 nM.

For the compound `C[C@@H]1Cc2c([nH]c3ccccc23)[C@@H](c2c(F)cc(OCCN3CC(CF)C3)cc2F)N1CC(=O)N(C)C` [Example 254, 2-[(1R,3R)-1-[2,6-difluoro-4-[2-[3-(fluoromethyl)azetidin-1-yl]ethoxy]phenyl]-3-methyl-1,3,4,9-tetrahydropyrido[3,4-b]indol-2-yl]-N,N-dimethyl-acetamide], the EC50 stood at 40 nM.

For the compound `C[C@@H]1Cc2c([nH]c3ccccc23)[C@@H](c2c(F)cc(OCCN3CC(CF)C3)cc2F)N1CC1(F)COC1` [Example 136, (1R,3R)-1-[2,6-difluoro-4-[2-[3-(fluoromethyl)azetidin-1-yl]ethoxy]phenyl]-2-[(3-fluorooxetan-3-yl)methyl]-3-methyl-1,3,4,9-tetrahydropyrido[3,4-b]indole], the EC50 was found to be 0.114 nM.

For the compound `C[C@@H]1Cc2c([nH]c3ccccc23)[C@@H](c2ccc(OCCN3CC(CF)C3)cc2)N1CC(C)(C)F` [Example 156, (1R,3R)-1-[4-[2-[3-(fluoromethyl)azetidin-1-yl]ethoxy]phenyl]-2-(2-fluoro-2-methyl-propyl)-3-methyl-1,3,4,9-tetrahydropyrido[3,4-b]indole], the EC50 was 0.335 nM.

Regarding `C[C@@H]1Cc2c([nH]c3ccccc23)[C@@H](c2c(F)cc(NC3CN(CCCF)C3)cc2F)N1C[C@@](F)(C#N)CO` [Example 418, (R)-3-((1R,3R)-1-(2,6-difluoro-4-((1-(3-fluoropropyl)azetidin-3-yl)amino)phenyl)-3-methyl-3,4-dihydro-1H-pyrido[3,4-b]indol-2(9H)-yl)-2-fluoro-2-(hydroxymethyl) propanenitrile], the EC50 amounted to 0.033 nM.

On to `C[C@@H]1Cc2c([nH]c3ccccc23)[C@@H](c2c(F)cc(OCCN3CC(CF)C3)cc2F)N1` [Example 220, (1R,3R)-1-[2,6-difluoro-4-[2-[3-(fluoromethyl)azetidin-1-yl]ethoxy]phenyl]-3-methyl-2,3,4,9-tetrahydro-1H-pyrido[3,4-b]indole], for which the EC50 is 7 nM.

In the case of `C[C@@H]1Cc2c([nH]c3ccccc23)[C@@H](c2c(F)cc(OC3CN(CC4CC(F)(F)C4)C3)cc2F)N1CC(C)(C)F` [Example 259, (1R,3R)-1-[4-[1-[(3,3-difluorocyclobutyl)methyl]azetidin-3-yl]oxy-2,6-difluoro-phenyl]-2-(2-fluoro-2-methyl-propyl)-3-methyl-1,3,4,9-tetrahydropyrido[3,4-b]indole], the EC50 worked out at 0.444 nM.

Regarding `C[C@@H]1Cc2c([nH]c3ccccc23)[C@@H](c2ccc(NC3CN(CCCF)C3)cc2)N1C[C@](C)(F)CO` [Example 293, (S)-2-fluoro-3-((1R,3R)-1-(4-((1-(3-fluoropropyl)azetidin-3-yl)amino)phenyl)-3-methyl-1,3,4,9-tetrahydro-2H-pyrido[3,4-b]indol-2-yl)-2-methylpropan-1-ol], the EC50 came out at 0.15 nM.

With `C[C@@H]1Cc2c([nH]c3ccccc23)[C@@H](c2c(F)cc(NCCN3CC(CF)C3)cc2F)N1C[C@@](C)(F)CO` [Example 352, (R)-3-((1R,3R)-1-(2,6-difluoro-4-((2-(3-(fluoromethyl)azetidin-1-yl)ethyl)amino)phenyl)-3-methyl-1,3,4,9-tetrahydro-2H-pyrido[3,4-b]indol-2-yl)-2-fluoro-2-methylpropan-1-ol], the EC50 was 0.685 nM.

Regarding `C[C@H](COc1cc(F)c([C@@H]2c3[nH]c4ccccc4c3C[C@@H](C)N2CC(C)(C)F)c(F)c1)N1CCCC1` [Example 151, (1R,3R)-1-[2,6-difluoro-4-[(2R)-2-pyrrolidin-1-ylpropoxy]phenyl]-2-(2-fluoro-2-methyl-propyl)-3-methyl-1,3,4,9-tetrahydropyrido[3,4-b]indole], the EC50 worked out at 0.156 nM.

As to `C[C@@H]1Cc2c([nH]c3cccc(F)c23)[C@@H](c2c(F)cc(NC3CN(CCCF)C3)cc2F)N1CC(F)(F)CO` [Example 416, 3-((1R,3R)-1-(2,6-difluoro-4-((1-(3-fluoropropyl)azetidin-3-yl)amino)phenyl)-5-fluoro-3-methyl-3,4-dihydro-1H-pyrido[3,4-b]indol-2(9H)-yl)-2,2-difluoropropan-1-ol], the 50% effective concentration (EC50) amounted to 0.024 nM.

As for `C[C@@H]1Cc2c([nH]c3ccccc23)[C@@H](c2ccc(OCCN3CC(CF)C3)cc2F)N1C[C@](C)(F)CO` [Example 274, (S)-2-fluoro-3-((1R,3R)-1-(2-fluoro-4-(2-(3-(fluoromethyl)azetidin-1-yl)ethoxy)phenyl)-3-methyl-1,3,4,9-tetrahydro-2H-pyrido[3,4-b]indol-2-yl)-2-methylpropan-1-ol], the EC50 was 0.253 nM.

On to `C[C@@H]1Cc2c([nH]c3ccccc23)[C@@H](c2c(F)cc(OCCN3CC(CF)C3)cc2F)N1C[C@](C)(F)CO` [Example 154, (S)-3-((1R,3R)-1-(2,6-difluoro-4-(2-(3-(fluoromethyl)azetidin-1-yl)ethoxy)phenyl)-3-methyl-3,4-dihydro-1H-pyrido[3,4-b]indol-2(9H)-yl)-2-fluoro-2-methylpropan-1-ol], for which the EC50 was found to be 0.0333 nM.

Consider `C[C@@H]1Cc2c([nH]c3ccccc23)[C@@H](c2ccc(NC3CN(CCCF)C3)cc2)N1S(C)(=O)=O` [Example 310, 1-(3-fluoropropyl)-N-[4-[(1R,3R)-3-methyl-2-methylsulfonyl-1,3,4,9-tetrahydropyrido[3,4-b]indol-1-yl]phenyl]azetidin-3-amine], for which the concentration for a half-maximal effect (EC50) is 0.708 nM.

On to `CCS(=O)(=O)N1[C@H](c2c(F)cc(OC3CN(CCCF)C3)cc2F)c2[nH]c3ccccc3c2C[C@H]1C` [Example 285, (1R,3R)-1-[2,6-difluoro-4-[1-(3-fluoropropyl)azetidin-3-yl]oxy-phenyl]-2-ethylsulfonyl-3-methyl-1,3,4,9-tetrahydropyrido[3,4-b]indole], for which the EC50 is 2 nM.

Consider `C[C@@H]1Cc2c([nH]c3ccccc23)[C@@H](c2c(F)cc(OCCN3CC(CF)C3)cc2F)N1C[C@H](C)c1ccccc1` [Example 198, (1R,3R)-1-(2,6-difluoro-4-(2-(3-(fluoromethyl)azetidin-1-yl)ethoxy)phenyl)-3-methyl-2-((R)-2-phenylpropyl)-2,3,4,9-tetrahydro-1H-pyrido[3,4-b]indole], for which the EC50 was found to be 2 nM.

In the case of `C[C@@H]1Cc2c([nH]c3ccccc23)[C@H](c2ccc(OCCN3CC(CF)C3)cc2F)N1S(C)(=O)=O` [Example 231, (1S,3R)-1-[2-fluoro-4-[2-[3-(fluoromethyl)azetidin-1-yl]ethoxy]phenyl]-3-methyl-2-methylsulfonyl-1,3,4,9-tetrahydropyrido[3,4-b]indole], the EC50 turned out to be 24 nM.

With `CCCCCN1CC(Oc2cc(F)c([C@@H]3c4[nH]c5ccccc5c4C[C@@H](C)N3CC(C)(C)F)c(F)c2)C1` [Example 163, (1R,3R)-1-[2,6-difluoro-4-(1-pentylazetidin-3-yl)oxy-phenyl]-2-(2-fluoro-2-methyl-propyl)-3-methyl-1,3,4,9-tetrahydropyrido[3,4-b]indole], the EC50 is 0.457 nM.

Staying with this assay, now noted: Homo sapiens; MCF7 cells; Table 2.
Take `C[C@@H]1Cc2c([nH]c3ccccc23)[C@@H](c2c(F)cc(OCCN3CC(CF)C3)cc2F)N1C(=O)C(C)(F)F` [Example 159, 1-[(1R,3R)-1-[2,6-difluoro-4-[2-[3-(fluoromethyl)azetidin-1-yl]ethoxy]phenyl]-3-methyl-1,3,4,9-tetrahydropyrido[3,4-b]indol-2-yl]-2,2-difluoro-propan-1-one]: the EC50 came to 0.147 nM.

These data come from patent US20250114338A1, “TETRAHYDRO-PYRIDO[3,4-b]INDOLE ESTROGEN RECEPTOR MODULATORS AND USES THEREOF” (Genentech, Inc., priority 2014, published 2025).
